Consider one molecule from US9045484B2, “Inhibitors of the BMP signaling pathway” (The Brigham and Women's Hospital, Inc., priority 2008, dated 2015).

For data set [1], the system named is KDR-mediated signaling. Nature of the data set: Antagonism of KDR-mediated signaling (not shown). As to conditions: compound 13 versus dorsomorphin.
The test system of data set [2] is hepcidin. Nature of the data set: Pseudomonas aeruginosa-induced hepcidin expression in zebrafish embryos. It counts as in vivo. Particulars: 6 μM; 5 h after PsA injection; RT-qPCR; FIG. 6. An excerpt:
The following describes the development an in vivo model of inflammation-induced hepcidin expression that is amenable to facile genetic and pharmacological manipulation. The zebrafish is an attractive organism because it enables rapid knockdown of gene function via morpholino oligonucleotides and because it is highly amenable to pharmacological manipulation. Live Pseudomonas aeruginosa (PsA) were microinjected into the yolk of three-day-old zebrafish to induce a rapid and robust inflammatory response. It was determined that injection of bacteria induces robust expression of inflammatory markers. Embryos were injected with 5000 live PsA bacteria or phosphate PBS at 48 hpf and harvested 5 h later. TNFα, serum amyloid A (SAA), IL-1β, and IL-11α mRNA levels were measured by RT-qPCR (FIG. 5; *P<0.001 vs PBS, #P<0.002 vs. PBS). […] Next, it was examined whether the inflammatory response evoked by PsA in zebrafish is accompanied by induction of hepcidin.
(In general: Real-time PCR tracks product formation cycle by cycle.)

The subject of data set [3] is IL6-induced hepcidin expression in HepG2 cells. Nature of the data set: IL6-induced hepcidin expression in HepG2 hepatoma cells. It counts as cell-based, human. Particulars: pretreatment 5-625 nM for 30 min, IL6 50 ng/mL 1.5 h; FIG. 7. How it is done: HepG2 cells pretreated with compound 13 (5-625 nM) or vehicle for 30 min. were incubated with IL6 (50 ng/mL) for 1.5 h. Cells were harvested, and hepcidin mRNA and 18S rRNA levels were measured by quantitative RT-PCR. Changes in gene expression were normalized to 18S ribosomal RNA levels using the relative cycle threshold method.

The test system of data set [4] is C57BL/6 wild-type mice. Put plainly: 30-day treatment of wild-type mice, circulating blood cell lineages. It counts as in vivo, C57BL/6 mice.
Data set [5] deals with hematopoietic stem cells. Nature of the data set: Frequency of hematopoietic stem cells in bone marrow, multicolor flow cytometry. It counts as in vivo, C57BL/6 mice. As to conditions: 3 mg/kg/d IP for 30 days; versus vehicle-injected controls; FIG. 15. How it is done:
Ten week-old male C57BL/6 mice were treated chronically with compound 13 (3 mg/kg/d IP) for 30 days, and bone marrow harvested and subjected to multicolor flow cytometry to quantify hematopoietic stem cell lineages based on cell surface marker expression.
In general terms: A flow cytometer gives signals particle by particle.

Data set [6] has as its system hepcidin. Put plainly: Hepcidin expression in IL-6-expressing transgenic zebrafish. As to conditions: 6 uM by bathing overnight; 7 days postfertilization; FIG. 22. It counts as in vivo. How it is done: IL-6 expression was driven in the cardiomyocytes of living zebrafish by mating transgenic zebrafish expressing the Gal4 protein under the control of the cardiac myosin light chain 2 (cmlc) promoter with transgenic zebrafish carrying the human IL-6 gene under the control of a UAS upstream activation sequence (IL-6). Animals carrying both transgenes expressed IL-6 in their cardiomyocytes. IL-6-expressing animals were treated with 6 uM compound 13 or DMSO control by bathing overnight (FIG. 22). At 7 days postfertilization, animals were lysed, total RNA was extracted, and hepcidin expression levels were determined by quantitative RT-PCR with normalization to the housekeeping gene RPL13.

The subject of data set [7] is LDL-R-deficient mice. Nature of the data set: Vascular calcification in high-fat diet fed LDL-R-deficient mice, Osteosense probe imaging of aortas. It counts as in vivo. Particulars: 16 weeks high fat diet; compound 13 mg/kg IP twice daily; FIG. 24. On the procedure: Adult (10 week old) LDL-R-deficient mice on a C57BL/6 background were subjected to a high-lipid atherogenic diet, concurrently with vehicle treatment or drug treatment (compound 13 mg/kg IP twice daily) started simultaneously with atherogenic diet. After 16 weeks of high fat diet and drug treatment, aortas, carotids, and left ventricular outflow tract were harvested and prepared as appropriate for histochemical staining or immunohistological staining, by en face mounting and fixation, or for paraffin embedded tissue sections for histology. To analyze early osteogenesis (as a precursor to calcification), mice were injected intravenously with Osteosense probe (VisEn) 24 hours prior to harvest, and harvested aortas were rinsed with phosphate buffered saline. Visualization of Osteosense probe was accomplished by near-IR fluorescence ([…]) using a LICOR laser scanner. This technique readily detected signal in aortas obtained from high-fat diet LDL-R-deficient mice treated with vehicle control (e, f, and g), while relatively little background signal was obtained in wild-type mice given a normal diet (a, b). Non-fluorescent imaging of wild-type aortas is also depicted (c, d).

For data set [8] the following is noted: C57BL/6, mouse, in vivo, ip, 3 mg/kg, 8 h.
Description: Preliminary pharmacokinetic studies were performed by intraperitoneally administering to wild-type mice (C57BL/6) one dose (3 mg/kg) of compound 13 (FIG. 23). Pharmacokinetics via plasma levels of compound 13 were serially measured in individual mice at varying intervals after injection by LC-MS/MS (n=3 mice each point, mean±s.d.).
Setting [9] is: 3 mg/kg/d IP for 30 days, average (n = 4).

`c1ccc2c(-c3cnn4cc(-c5ccc(N6CCNCC6)cc5)cnc34)ccnc2c1` [Compound 13, 4-[6-(4-piperazin-1-ylphenyl)pyrazolo[1,5-a]pyrimidin-3-yl]quinoline]: the “antagonism of KDR-mediated signaling” value in data set [1] is listed as “five- to six-fold reduction”. Moreover, the “PsA-induced induction of hepcidin mRNA” value in data set [2] was “almost completely blocked”. The “IL6-mediated increase in hepcidin mRNA levels” value in data set [3] was “abrogated the IL6-mediated increase in hepcidin mRNA levels in a dose-dependent fashion”. In addition, the “myelosuppression, thrombocytopenia, anemia or erythrocytosis” value in data set [4] (3 mg/kg/d IP for 30 days) is on record as “did not appear to cause myelosuppression, thrombocytopenia, anemia or conversely erythrocytosis”. In data set [4] (setting [9]), the “% Lymphocyte” value is recorded as 63.1%, the “% Monocyte” value is reported as 3.8%, the “% Neutrophil” value is reported as 30.8% and the “% Reticulocyte” value is 2.6%. Moreover, in data set [4] (setting [9]), the Hb is 11.9 g/dL, the Hct is 43.8%, the MCHC was found to be 27.3 g/dL and the MCV was 48.5 fL. In data set [4] (setting [9]), the Platelet count amounted to 8.305e+11 L⁻¹, the RBC came to 9e+12 L⁻¹, the RDW amounted to 18.6% and the “Total WBC” value was 1.9e+09 L⁻¹. Moreover, the “serum iron in the steady state” value in data set [4] (30 days treatment, compared to vehicle-treated controls, data not shown) is recorded as “did not cause an elevation of serum iron”. Besides, the “frequency of hematopoietic stem cells in the marrow” value in data set [5] is “No significant difference”. The “hepcidin expression in IL-6-expressing animals” value in data set [6] was “reduced hepcidin expression to wild-type levels”. Further, the “Osteosense near-IR fluorescence of aortas” value in data set [7] was “less intense than that of vehicle-treated controls”. Besides, the “plasma levels relative to in vitro IC50 for BMP4-mediated activation of Smad1/5/8” value in data set [8] turned out to be 5 fold.
